Tested on: Eimeria Tenella (Weybridge) sporozites
Assay: in vitro anti-coccidial activity, primary explant cultures of chick embryo liver cells with sporozites
Assay type: cell-based
Conditions: with sulphaquinoxaline 0.01 μg/ml and diaveridine 0.031 μg/ml
Experimental: The anti-coccidial activity of compounds of formula (III) alone and in combination with a mixture of diaveridine (DV) and sulphaquinoxaline (SQX) in vitro was tested according to the following procedure.
Using standard test procedures employing primary explant cultures of chick embryo liver cells and a suspension of Eimeria Tenella (Weybridge) sporozites the activity of the compounds was determined at various concentrations. In the above test, each test compound was used either alone or in combination with sulphaquinoxaline (0.01 μg/ml) and diaveridine (0.031 μg/ml). It should be noted that the minimum active anti-coccidial amounts of sulphaquinoxaline and diaveridine are 0.024 μg/ml and 0.098 μg/ml respectively.
The following results were obtained wherein activity is expressed as follows: […]

Row | SMILES | Activity, with DV/SQX (100 μg/ml) | Activity, with DV/SQX (25 μg/ml)
1 | COC(=O)C1=NN(C)c2nc(N)[nH]c(=O)c2C(c2cc(OC)c(OC)c(OC)c2)=C1 [Example 6, 8-Amino-3-carbomethoxy-1-methyl-5-(3,4,5-trimethoxyphenyl)-1H-pyrimido{4,5-c}-1,2-diazepin-6(7H)-one] | 5 (No parasite development) | 
2 | CCOC(=O)C1=NN(C)c2nc(N)[nH]c(=O)c2C(c2ccc(OC)cc2OC)=C1 [Example 7, 8-Amino-3-carbethoxy-1-methyl-5-(2,4-dimethoxyphenyl)-1H-pyrimido{4,5-c}-1,2-diazepin-6(7H)-one] | 5 (No parasite development) | 5 (No parasite development)
